In patent publication US8846928B2 (Portola Pharmaceuticals, Inc., priority 2010, dated 2014) one finds IC50 data, which are given here for 41 compounds.

A word on the IC50: it is the midpoint of a concentration-inhibition curve.

This experiment has as its target T1, full length active recombinant SYK enzyme (Homo sapiens, UniProt P43405).
T1 construct: full length active recombinant SYK enzyme (Millipore, Calif.); purchased Millipore
In words: Inhibition of Syk tyrosine phosphorylation activity (LANCE TR-FRET kinase assay). Type of experiment: biochemical.
Turning to `NC(=O)c1ccc(N[C@@H]2CCCC[C@@H]2N)nc1Nc1cccc(-n2nccn2)c1` [Example 132, 2-(3-(2H-1,2,3-triazol-2-yl)phenylamino)-6-((1R,2S)-2-aminocyclohexylamino)nicotinamide], the IC50 is 1 to 10 nM.

Take `NC(=O)c1ccc(N[C@@H]2CCCC[C@@H]2N)nc1Nc1cccc(-c2ncccn2)c1` [Example 133, 2-(3-(pyrimidin-2-yl)phenylamino)-6-((1R,2S)-2-aminocyclohexylamino)nicotinamide]: the IC50 is 10 to 100 nM.

On to `NC(=O)c1ccc(N[C@@H]2CCCC[C@@H]2N)nc1Nc1ccc2ncccc2c1` [Example 134, 2-(quinolin-6-ylamino)-6-((1R,2S)-2-aminocyclohexylamino)nicotinamide], for which the concentration for half-maximal inhibition (IC50) fell in the range of 1 to 10 nM. Next, `NC(=O)c1ccc(N[C@@H]2CCCC[C@@H]2N)nc1Nc1ccc2cnccc2c1` [Example 135, 2-(isoquinolin-6-ylamino)-6-((1R,2S)-2-aminocyclohexylamino)nicotinamide]: 1 to 10 nM; `Cn1ncc2c(Nc3nc(N[C@@H]4CCCC[C@@H]4N)c(F)cc3C(N)=O)cccc21` [Example 136, 2-(1-methyl-1H-indazol-4-ylamino)-6-((1R,2S)-2-aminocyclohexylamino)-5-fluoronicotinamide]: 1 to 10 nM; `NC(=O)c1ccc(N[C@@H]2CCCC[C@@H]2N)nc1Nc1ccc2ccncc2c1` [Example 137, 2-(isoquinolin-7-ylamino)-6-((1R,2S)-2-aminocyclohexylamino)nicotinamide]: 1 to 10 nM. Take `NC(=O)c1ccc(N[C@@H]2CCCC[C@@H]2N)nc1Nc1cccc(-n2cncn2)c1` [Example 138, 2-(3-(1H-1,2,4-triazol-1-yephenylamino)-6-(1R,2S)-2-aminocyclohexylamino)nicotinamide]: the IC50 is 1 to 10 nM.

As to `Cn1ncc2cc(Nc3nc(N[C@@H]4CCCC[C@@H]4N)c(F)cc3C(N)=O)ccc21` [Example 139, 2-(1-methyl-1H-indazol-5-ylamino)-6-((1R,2S)-2-aminocyclohexylamino)-5-fluoronicotinamide], the IC50 was in the range of 1 to 10 nM. On to `NC(=O)c1cc(F)c(N[C@H]2CCCNC2)nc1Nc1ccc2ncccc2c1` [Example 143, (S)-5-fluoro-6-(piperidin-3-ylamino)-2-(quinolin-6-ylamino)nicotinamide], for which the IC50 is greater than 1000 nM. On to `Cc1cc(Nc2cc(N[C@@H]3CCCC[C@@H]3N)ccc2C(N)=O)on1` [Example 147, 4-((1R,2S)-2-aminocyclohexylamino)-2-(3-methylisoxazol-5-ylamino)benzamide], for which the IC50 lay in the range of 100 to 1000 nM.

On to `NC(=O)c1cc(F)c(N[C@@H]2CCCC[C@@H]2N)nc1Nc1cnc2ncccc2c1` [Example 150, 2-(1,8-naphthyridin-3-ylamino)-6-((1R,2S)-2-aminocyclohexylamino)-5-fluoronicotinamide], for which the half-maximal inhibitory concentration (IC50) was 1 to 10 nM. Consider `NC(=O)c1cc(F)c(N[C@@H]2CCCC[C@@H]2N)nc1Nc1ccnc2ncccc12` [Example 151, 2-(1,8-naphthyridin-4-ylamino)-6-((1R,2S)-2-aminocyclohexylamino)-5-fluoronicotinamide], for which the IC50 fell in the range of 1 to 10 nM.

As to `NC(=O)c1cc(F)c(N[C@@H]2CCCC[C@@H]2N)nc1Nc1cncnc1` [Example 152, 6-((1R,2S)-2-aminocyclohexylamino)-5-fluoro-2-(pyrimidin-5-ylamino)nicotinamide], the IC50 was in the range of 100 to 1000 nM. `Cn1cnc2cc(Nc3nc(N[C@@H]4CCCC[C@@H]4N)c(F)cc3C(N)=O)ccc21` [Example 153, 6-((1R,2S)-2-aminocyclohexylamino)-5-fluoro-2-(1-methyl-1H-benzo[d]imidazol-5-ylamino)nicotinamide]: the IC50 is 1 to 10 nM. Take `NC(=O)c1cc(F)c(N[C@@H]2CCCC[C@@H]2N)nc1Nc1cncc(-n2nccn2)c1` [Example 154, 2-(5-(2H-1,2,3-triazol-2-yl)pyridin-3-ylamino)-6-((1R,2S)-2-aminocyclohexylamino)-5-fluoronicotinamide]: the half-inhibitory concentration (IC50) is 1 to 10 nM. For `NC(=O)c1cc(F)c(N[C@@H]2CCCC[C@@H]2N)nc1Nc1cncc(-n2cccn2)c1` [Example 155, 2-(5-(1H-pyrazol-1-yl)pyridin-3-ylamino)-6-((1R,2S)-2-aminocyclohexylamino)-5-fluoronicotinamide], the half-inhibitory concentration (IC50) was greater than 1000 nM. Next, `NC(=O)c1cc(F)c(N[C@@H]2CCCC[C@@H]2N)nc1Nc1cncc(-c2ncccn2)c1` [Example 156, 6-((1R,2S)-2-aminocyclohexylamino)-5-fluoro-2-(5-(pyrimidin-2-yl)pyridin-3-ylamino)nicotinamide]: 1 to 10 nM; `NC(=O)c1ccc(N[C@@H]2CCCC[C@@H]2N)nc1Nc1cncc(-c2ncccn2)c1` [Example 157, 6-((1R,2S)-2-aminocyclohexylamino)-2-(5-(pyrimidin-2-yl)pyridin-3-ylamino)nicotinamide]: 10 to 100 nM. Turning to `NC(=O)c1ccc(N[C@@H]2CCCC[C@@H]2N)nc1Nc1cncc(-n2nccn2)c1` [Example 158], the IC50 was 1 to 10 nM.

Take `NC(=O)c1ccc(N[C@@H]2CCCC[C@@H]2N)nc1Nc1cncc(-n2cccn2)c1` [Example 159, 2-(5-(1H-pyrazol-1-yl)pyridin-3-ylamino)-6-((1R,2S)-2-aminocyclohexylamino)nicotinamide]: the IC50 fell in the range of 1 to 10 nM. Turning to `NC(=O)c1cc(F)c(N[C@@H]2CCCC[C@@H]2N)nc1Nc1cncc(-n2ccnc2)c1` [Example 160], the half-inhibitory concentration (IC50) lay within 10 to 100 nM. The result for `NC(=O)c1ccc(N[C@@H]2CCCC[C@@H]2N)nc1Nc1cncc(-n2ccnc2)c1` [Example 161, 2-(5-(1H-imidazol-1-yl)pyridin-3-ylamino)-6-((1R,2S)-2-aminocyclohexylamino)nicotinamide] reads 1 to 10 nM. Next, `NC(=O)c1cc(F)c(N[C@@H]2CCCC[C@@H]2N)nc1Nc1cncc(-c2nccs2)c1` [Example 162, 6-((1R,2S)-2-aminocyclohexylamino)-5-fluoro-2-(5-(thiazol-2-yl)pyridin-3-ylamino)nicotinamide]: 1 to 10 nM. Take `NC(=O)c1ccc(N[C@@H]2CCCC[C@@H]2N)nc1Nc1cncc(-c2nccs2)c1` [Example 163]: the IC50 was in the range of 1 to 10 nM.

In the case of `COc1cncc(Nc2nc(N[C@@H]3CCCC[C@@H]3N)ccc2C(N)=O)c1` [Example 164], the IC50 was in the range of 1 to 10 nM. Regarding `NC(=O)c1ccc(N[C@@H]2CCCC[C@@H]2N)nc1Nc1cnc2ncccc2c1` [Example 165], the half-maximal inhibitory concentration (IC50) was in the range of 1 to 10 nM. In the case of `COc1ncc(Nc2nc(N[C@@H]3CCCC[C@@H]3N)c(F)cc2C(N)=O)cn1` [Example 166, 6-((1R,2S)-2-aminocyclohexylamino)-5-fluoro-2-(2-methoxypyrimidin-5-ylamino)nicotinamide], the IC50 lay within 100 to 1000 nM. For the compound `NC(=O)c1cc(F)c(N[C@@H]2CCCC[C@@H]2N)nc1Nc1cccnc1` [Example 174, 6-((1R,2S)-2-aminocyclohexylamino)-5-fluoro-2-(pyridin-3-ylamino)nicotinamide], the half-maximal inhibitory concentration (IC50) was 1 to 10 nM. Take `NC(=O)c1cc(F)c(N[C@@H]2CCCC[C@@H]2N)nc1Nc1ccncc1` [Example 175]: the concentration for half-maximal inhibition (IC50) lay within 10 to 100 nM. Regarding `NC(=O)c1cc(F)c(N[C@@H]2CCCC[C@@H]2N)nc1Nc1ccc(C(F)(F)F)nc1` [Example 176, 6-((1R,2S)-2-aminocyclohexylamino)-5-fluoro-2-(6-(trifluoromethyl)pyridin-3-ylamino)nicotinamide], the IC50 fell in the range of 10 to 100 nM. Turning to `NC(=O)c1cc(F)c(N[C@@H]2CCCC[C@@H]2N)nc1Nc1cncs1` [Example 177, 6-((1R,2S)-2-aminocyclohexylamino)-5-fluoro-2-(thiazol-5-ylamino)nicotinamide], the IC50 was greater than 1000 nM. As to `NC(=O)c1cc(F)c(N[C@@H]2CCCC[C@@H]2N)nc1Nc1cnsc1` [Example 178, 6-((1R,2S)-2-aminocyclohexylamino)-5-fluoro-2-(isothiazol-4-ylamino)nicotinamide], the concentration for half-maximal inhibition (IC50) lay within 10 to 100 nM.

In the case of `NC(=O)c1ccc(N[C@@H]2CCCC[C@@H]2N)nc1Nc1cncc(F)c1` [Example 179], the IC50 lay within 1 to 10 nM. In the case of `NC(=O)c1ccc(N[C@@H]2CCCC[C@@H]2N)nc1Nc1cccnc1` [Example 180, 6-((1R,2S)-2-aminocyclohexylamino)-2-(pyridin-3-ylamino)nicotinamide], the IC50 was 1 to 10 nM. Next, `NC(=O)c1ccc(N[C@@H]2CCCC[C@@H]2N)nc1Nc1ccncc1` [Example 181, 6-((1R,2S)-2-aminocyclohexylamino)-2-(pyridin-4-ylamino)nicotinamide]: 1 to 10 nM; `Cc1cc(Nc2nc(N[C@@H]3CCCC[C@@H]3N)ccc2C(N)=O)sn1` [Example 182, 6-((1R,2S)-2-aminocyclohexylamino)-2-(3-methylisothiazol-5-ylamino)nicotinamide]: 1 to 10 nM.

`NC(=O)c1cc(F)c(N[C@@H]2CCCC[C@@H]2N)nc1Nc1cnc2cccnc2c1` [Example 183, 2-(1,5-naphthyridin-3-ylamino)-6-((1R,2S)-2-aminocyclohexylamino)-5-fluoronicotinamide]: the IC50 was 1 to 10 nM. With `NC(=O)c1ccc(N[C@@H]2CCCC[C@@H]2N)nc1Nc1cnc2cccnc2c1` [Example 184], the IC50 fell in the range of 1 to 10 nM.

On to `NC(=O)c1ccc(N[C@@H]2CCCC[C@@H]2N)nc1Nc1cnc2ccccc2c1` [Example 185, 6-((1R,2S)-2-aminocyclohexylamino)-2-(quinolin-3-ylamino)nicotinamide], for which the IC50 lay in the range of 1 to 10 nM. Turning to `NC(=O)c1ccc(N[C@@H]2CCCC[C@@H]2N)nc1Nc1ccc2cccnc2c1` [Example 186, 6-((1R,2S)-2-aminocyclohexylamino)-2-(quinolin-7-ylamino)nicotinamide], the IC50 lay within 1 to 10 nM. The result for `NC(=O)c1cc(F)c(N[C@@H]2CCCC[C@@H]2N)nc1Nc1cccc(-n2cccc2)c1` [Example 187, 2-(3-(1H-pyrrol-1-yl)phenylamino)-6-((1R,2S)-2-aminocyclohexylamino)-5-fluoronicotinamide] reads 1 to 10 nM.
